In ChEMBL document CHEMBL5137070, “N-2-(Phenylamino) Benzamide Derivatives as Dual Inhibitors of COX-2 and Topo I Deter Gastrointestinal Cancers via Targeting Inflammation and Tumor Progression” (J Med Chem, 2022):
Activity calls are given as the source filed them. The rule behind the calls is not given here.

Legend:
HGC-27 [1] = assay: Effect on cell morphology in human HGC-27 cells assessed as contracted nucleus at 10 uM incubated for 48 hrs by giemsa staining based microscopic analysis; type: functional
CT26.WT [2] = assay: Antiproliferative activity against mouse CT26.WT cells assessed as cell viability at 1.23 uM for 48 hrs by MTT assay; type: functional; conditions: read-out: Activity
RKO [3] = assay: Induction of apoptosis in human RKO cells assessed as increase in Bax/Bcl-2 ratio expression at 1.1 to 10 uM incubated for 24 hrs by western blot assay; type: functional, cell-based; conditions: dose 1.1-10 µM
CT26.WT [4] = assay: Anti-tumor activity against mouse CT26.WT xenografted in BALB/c mouse assessed as decrease in tumor size at 100 mg/kg, ip twice daily and measured upto 14 days relative to control; type: functional, organism-based; conditions: time <= 14.0 day
[5] = Half in Sprague-Dawley rat at 100 mg/kg, ip and measured upto 8 hrs by LC-MS/MS analysis; type: ADME, organism-based; conditions: in vivo
RKO [6] = assay: Antiproliferative activity against human RKO cells assessed as cell viability at <= 0.41 uM for 48 hrs by MTT assay; type: functional; conditions: up to 0.41 µM
HGC-27 [7] = assay: Induction of apoptosis in human HGC-27 cells assessed as increase in caspase-3 activity at 3.3 uM incubated for 36 hrs by flow cytometry (Rvb= 9.39%); type: functional
HGC-27 [8] = assay: Antiproliferative activity against human HGC-27 cells assessed as clone formation at 0.37 to 3.3 uM incubated for 4 days by crystal violet staining based analysis; type: functional, cell-based; conditions: dose 0.37-3.3 µM, time 4.0 day
SGC-7901 = assay: Antiproliferative activity against human SGC-7901 cells assessed as reduction in cell proliferation incubated for 48 hrs by MTT assay; type: functional, cell-based; conditions: SGC-7901, 48 h
HGC-27 [9] = assay: Induction of cell cycle arrest in human HGC-27 cells assessed as accumulation at G2/M phase at 3.3 to 10 uM for 24 hrs by propidium iodide staining based flow cytometry; type: functional; conditions: dose 3.3-10 µM
RKO [10] = assay: Antiproliferative activity against human RKO cells assessed as reduction in cell proliferation incubated for 48 hrs by MTT assay; type: functional, cell-based
RKO [11] = assay: Effect on cell morphology in human RKO cells assessed as contracted nucleus at 10 uM incubated for 48 hrs by giemsa staining based microscopic analysis; type: functional
RKO [12] = assay: Induction of apoptosis in human RKO cells assessed as increase in cleaved caspase-3 expression at 1.1 to 10 uM incubated for 24 hrs by western blot assay; type: functional, cell-based; conditions: dose 1.1-10 µM
HGC-27 [13] = assay: Effect on cell morphology in human HGC-27 cells assessed as appearance of smaller cells at 10 uM incubated for 48 hrs by giemsa staining based microscopic analysis; type: functional
HGC-27 [14] = assay: Induction of apoptosis in human HGC-27 cells assessed as increase in cleaved caspase-9 expression at 1.1 to 10 uM incubated for 24 hrs by western blot assay; type: functional, cell-based; conditions: dose 1.1-10 µM
HGC-27 [15] = assay: Effect on cell morphology in human HGC-27 cells assessed as appearance of round cells at 10 uM incubated for 48 hrs by giemsa staining based microscopic analysis; type: functional
RKO [16] = assay: Effect on cell morphology in human RKO cells assessed as appearance of smaller cells at 10 uM incubated for 48 hrs by giemsa staining based microscopic analysis; type: functional
RKO [17] = assay: Effect on cell morphology in human RKO cells assessed as condensed morphology at 10 uM incubated for 48 hrs by giemsa staining based microscopic analysis; type: functional
RKO [18] = assay: Induction of apoptosis in human RKO cells at 1.1 to 10 uM for 24 hrs by Annexin V-FITC/PI staining based flow cytometry; type: functional, cell-based; conditions: dose 1.1-10 µM
[19] = AUC (0 to t) in Sprague-Dawley rat at 100 mg/kg, ip and measured upto 8 hrs by LC-MS/MS analysis; type: ADME, organism-based; set-up: dose 100 mg/kg, time < 8 hrs, route ip; conditions: in vivo
HGC-27 [20] = assay: Induction of pro-apoptosis in human HGC-27 assessed as DNA breakdown by analyzing DNA ladder at 1.1 to 10 uM for 36 hrs by ethidium bromide staining based agarose gel electrophoresis; type: functional, cell-based; conditions: dose 1.1-10 µM
[21] = Acute toxicity in Kunming mouse assessed as lethal dose at 100 mg/kg,ip and measured upto 14 days; type: organism-based; conditions: in vivo, time < 14 day
RKO [22] = assay: Induction of apoptosis in human RKO cells assessed as increase in cleaved caspase-9 expression at 1.1 to 10 uM incubated for 24 hrs by western blot assay; type: functional, cell-based; conditions: dose 1.1-10 µM
HT-29 = assay: Antiproliferative activity against human HT-29 cells assessed as reduction in cell proliferation incubated for 48 hrs by MTT assay; type: functional, cell-based; conditions: HT-29, 48 h
[23] = AUC (0 to infinity) in Sprague-Dawley rat at 100 mg/kg, ip and measured upto 8 hrs by LC-MS/MS analysis; type: ADME, organism-based; set-up: dose 100 mg/kg, time < 8 hrs, route ip; conditions: in vivo
RKO [24] = assay: Effect on cell morphology in human RKO cells assessed as appearance of round cells at 10 uM incubated for 48 hrs by giemsa staining based microscopic analysis; type: functional
HGC-27 [25] = assay: Induction of apoptosis in human HGC-27 cells assessed as increase in caspase-3 activity at 1.1 uM incubated for 36 hrs by flow cytometry (Rvb= 9.39%); type: functional
HGC-27 [26] = assay: Induction of mitochondrial membrane loss in human HGC-27 at 1.1 to 10 uM and measured after 36 hrs by TMRE dye based flow cytometry; type: functional, cell-based; conditions: dose 1.1-10 µM, DDE = dose-dependent effect

For `Cc1c(Cl)cccc1Nc1ccc(F)cc1C(=O)NCc1ccc(O)c(O)c1`, the Activity (HGC-27 [1]) was “Active”, the viability at 1.23 µM (CT26.WT [2]) was greater than 80% and the Activity (RKO [3]) was “Active”. The Activity (CT26.WT [4]) was “Active”, the half-life [5] was 93.6 min and the Activity (RKO [6]) was greater than 80%. For the same molecule, the Activity (HGC-27 [7]) was 68.8%, the Activity (HGC-27 [8]) was “Active” and the IC50 (SGC-7901) was 15 µM. For the same molecule, the Activity (HGC-27 [9]) was “Active”, the IC50 (RKO [10]) was 3.12 µM and the Activity (RKO [11]) was “Active”. For the same molecule, the Activity (RKO [12]) was “Active”, the Activity (HGC-27 [13]) was “Active” and the Activity (HGC-27 [14]) was “Active”. For the same molecule, the Activity (HGC-27 [15]) was “Active”, the Activity (RKO [16]) was “Active” and the Activity (RKO [17]) was “Active”. The Activity (RKO [18]) was “Active”, the AUC(0-t) at 8 h [19] was 18200 ng·h/mL and the Activity (HGC-27 [20]) was “Active”. The LD50 at 336 h [21] was greater than 100 mg/kg, the Activity (RKO [22]) was “Active” and the IC50 (HT-29) was 16.9 µM. The AUC(0-inf) [23] was 18600 ng·h/mL, the Activity (RKO [24]) was “Active” and the Activity (HGC-27 [25]) was 57.64%. For the same molecule, the Activity (HGC-27 [26]) was “Dde”.
